[UNA] = unlocked nucleic acid; m = 2'-O-methyl; r = 2'-OH (RNA)
Key:
[1] = system: V30M gene reporter variant (nucleotide sequence 264 to 304 of human TTR containing the point mutation at position 284); test: PSICHECK reporter assay against V30M gene reporter variant; format: cell-based; conditions: for effectiveness against V30M compared with V30V: V30V and V30M gene reporter variants; for selectivity against V30M over V30V: IC50 against V30V over IC50 against V30M; for IC50: V30M gene reporter variant
Protocol: (§1) Conventional siRNAs that are complementary to the […] mRNA were tiled around position 284. […] Positions 5, 9, 14 and 15 appear to be more accessible to silencing than other positions. […] Four conventional siRNA variations, namely V30M-P5, V30M-P9, V30M-P14, and V30M-P15, were prepared.
(§2) Thus, the selectivity of the conventional siRNAs against V30M over V30V was no more than 5.6.

Transthyretin TTR mRNA = test: Knockdown of TTR protein in plasma of Cynomolgus monkeys after single IV dose of liposomal UNA oligomer (LC-MS/MS SRM); format: in vivo, Cynomolgus monkeys (Macaca fascicularis)
Protocol: A single-dose, pharmacokinetic and pharmacodynamic study of liposomally formulated UNA Oligomers targeting transthyretin (TTR) mRNA following intravenous infusion in Cynomolgus monkeys was performed.
Cynomolgus monkeys (Macaca fascicularis) were selected for this study because the TTR mRNA of Cynomolgus monkeys is homologous to human TTR mRNA, making them a good model for screening the potency of UNA oligomers targeting to TTR mRNA.
In this study, the knockdown of Transthyretin protein was evaluated as a result of treatment with UNA oligomers targeting Transthyretin TTR mRNA, based on SEQ ID NOs:46/86, 59/99, and 60/100, delivered in a liposomal formulation to male Cynomolgus monkeys. Measurements were made following a single intravenous (IV) dose administration. TTR protein concentration in plasma samples was assessed by LC-MS/MS at various time points.
Animals in Groups 1 through 8 were administered the test articles on Day 1 at 0.3 mg/kg, dose volume 6.25 mL/kg, concentration 0.048 mg/mL. Doses were administered as a 15-minute intravenous (IV) infusion, +1 minute, using a pump and disposable syringe.
For each animal, infusion start and end times were recorded; and subsequent sample collection target times were determined based on infusion end time (t=0). All blood specimens, approximately 1 mL, were collected by venipuncture from a peripheral vein from restrained, conscious animals.
The Monkey TTR SRM assay was used, which is a high throughput absolute protein quantitation assay using Selected Reaction Monitoring (SRM) technology platform. In a single SRM assay, the panel can multiplex up to 200 proteins. The assay was performed on a targeted absolute protein quantitation platform, where the key technology was SRM, sometimes also referred to as Multiple Reaction Monitoring (MRM). In a triple-quadrupole (QQQ) mass spectrometer, SRM/MRM is a tandem selection process where selecting peptides by precursor m/z is followed by selecting fragmentations (transitions) of the targeted peptide.

[2] = system: V30V gene reporter variant (nucleotide sequence 264 to 304 of human TTR without the point mutation at position 284); test: PSICHECK reporter assay against V30V gene reporter variant; format: cell-based
Protocol: as §1, §2

[3] = lipid; cited from earlier work

Row | Compound | activity compared to the conventional siRNA, each targeted to V30M [1] | selectivity against V30M over V30V compared to the conventional siRNA [1] | silencing V30M TTR [1] | effectiveness against V30M compared with V30V [1] | other results
1 | ĞCCAUGCAUGUGUUCAGAAŨmU / UUCUGAACACAUGCAŨGGCŨmU (chain 1 GCCAUGCAUGUGUUCAGAAUU; chain 2 UUCUGAACACAUGCAUGGCUU; siRNA; chain 1: sugars from the 5' end [UNA]1 r18 [UNA]1 m1, backbone not given here; chain 2: sugars from the 5' end r15 [UNA]1 r3 [UNA]1 m1, backbone not given here) [P16U16] | superior to the activity of the conventional siRNA V30M-P16 | substantially greater than for the conventional siRNA V30M-P16 | effective in silencing V30M TTR | more effective against V30M than V30V | 
2 | ĞCCAUGCAUGUGUUCAGAAŨmU / UUCUGAÃCACAUGCAUGGCŨmU (chain 1 GCCAUGCAUGUGUUCAGAAUU; chain 2 UUCUGAACACAUGCAUGGCUU; siRNA; chain 1: sugars from the 5' end [UNA]1 r18 [UNA]1 m1, backbone not given here; chain 2: sugars from the 5' end r6 [UNA]1 r12 [UNA]1 m1, backbone not given here) [P16U7] | superior to the activity of the conventional siRNA V30M-P16 | substantially greater than for the conventional siRNA V30M-P16 | effective in silencing V30M TTR | more effective against V30M than V30V | 
3 | ĞGCCAUGCAUGUGUUCAGAŨmU / UCUGAACACAUGCAUĞGCCŨmU (chain 1 GGCCAUGCAUGUGUUCAGAUU; chain 2 UCUGAACACAUGCAUGGCCUU; siRNA; chain 1: sugars from the 5' end [UNA]1 r18 [UNA]1 m1, backbone not given here; chain 2: sugars from the 5' end r15 [UNA]1 r3 [UNA]1 m1, backbone not given here) [P15U16] |  | substantially greater than for the conventional siRNA V30M-P15 | effective in silencing V30M TTR | more effective against V30M than V30V | 
4 | ŨAACCAAGAGUAUUCCAUUŨmU / AAUGGAAUACUCUUGGUUAŨmU (chain 1 UAACCAAGAGUAUUCCAUUUU; chain 2 AAUGGAAUACUCUUGGUUAUU; siRNA; chain 1: sugars from the 5' end [UNA]1 r18 [UNA]1 m1, backbone not given here; chain 2: sugars from the 5' end r19 [UNA]1 m1, backbone not given here) [SEQ ID NO:60/100] |  |  |  |  | knockdown of TTR (Transthyretin TTR mRNA; at 20 days, single IV dose 0.3 mg/kg, primates): over 91%; knockdown of TTR (Transthyretin TTR mRNA; continuous duration of more than 20 days, single IV dose 0.3 mg/kg, primates): more than 70%; TTR protein levels (Transthyretin TTR mRNA; continuous duration of more than one month (30 days), single injection, primates): below 50%; knockdown of Transthyretin protein in vivo (Transthyretin TTR mRNA; liposomal formulation, male Cynomolgus monkeys, single IV dose 0.3 mg/kg, plasma): achieved
5 | ĞGCCAUGCAUGUGUUCAGAŨmU / UCUGAACACAUGCÃUGGCCŨmU (chain 1 GGCCAUGCAUGUGUUCAGAUU; chain 2 UCUGAACACAUGCAUGGCCUU; siRNA; chain 1: sugars from the 5' end [UNA]1 r18 [UNA]1 m1, backbone not given here; chain 2: sugars from the 5' end r13 [UNA]1 r5 [UNA]1 m1, backbone not given here) [P15U14] |  |  | effective in silencing V30M TTR |  | 
6 | ĞCCAUGCAUGUGUUCAGAAŨmU / UUCUGAACACAUGCAUĞGCŨmU (chain 1 GCCAUGCAUGUGUUCAGAAUU; chain 2 UUCUGAACACAUGCAUGGCUU; siRNA; chain 1: sugars from the 5' end [UNA]1 r18 [UNA]1 m1, backbone not given here; chain 2: sugars from the 5' end r16 [UNA]1 r2 [UNA]1 m1, backbone not given here) [P16U17] |  |  | effective in silencing V30M TTR |  | 
7 | ĞGCCAUGCAUGUGUUCAGAŨmU / UCUGAACACAUGCAŨGGCCŨmU (chain 1 GGCCAUGCAUGUGUUCAGAUU; chain 2 UCUGAACACAUGCAUGGCCUU; siRNA; chain 1: sugars from the 5' end [UNA]1 r18 [UNA]1 m1, backbone not given here; chain 2: sugars from the 5' end r14 [UNA]1 r4 [UNA]1 m1, backbone not given here) [P15U15] |  | substantially greater than for the conventional siRNA V30M-P15 | effective in silencing V30M TTR | more effective against V30M than V30V | 
8 | ĞGCCAUGCAUGUGUUCAGAŨmU / UCUGAAĈACAUGCAUGGCCŨmU (chain 1 GGCCAUGCAUGUGUUCAGAUU; chain 2 UCUGAACACAUGCAUGGCCUU; siRNA; chain 1: sugars from the 5' end [UNA]1 r18 [UNA]1 m1, backbone not given here; chain 2: sugars from the 5' end r6 [UNA]1 r12 [UNA]1 m1, backbone not given here) [P15U7] |  | substantially greater than for the conventional siRNA V30M-P15 | effective in silencing V30M TTR | more effective against V30M than V30V | 
9 | ĞGCCAUGCAUGUGUUCAGAŨmU / UCUGAÃCACAUGCAUGGCCŨmU (chain 1 GGCCAUGCAUGUGUUCAGAUU; chain 2 UCUGAACACAUGCAUGGCCUU; siRNA; chain 1: sugars from the 5' end [UNA]1 r18 [UNA]1 m1, backbone not given here; chain 2: sugars from the 5' end r5 [UNA]1 r13 [UNA]1 m1, backbone not given here) [P15U6] | superior to the activity of the conventional siRNA V30M-P15 | substantially greater than for the conventional siRNA V30M-P15 | effective in silencing V30M TTR | more effective against V30M than V30V | IC50 [2]: 0.92 nM; superiority of selectivity over the selectivity of 5.6 of the conventional siRNA [1]: 4 fold; selectivity against V30M over V30V [1]: 24; IC50 [1]: 0.0376 nM
10 | CCCCCC/C=C\COC(=O)CCCCCCCN(CCCCCCCC(=O)OC/C=C\CCCCCC)C(=O)CSCCCN(CC)CC [ATX- 008] |  |  |  |  | pKa [3]: 10
11 | ĞCCAUGCAUGUGUUCAGAAŨmU / UUCUGÃACACAUGCAUGGCŨmU (chain 1 GCCAUGCAUGUGUUCAGAAUU; chain 2 UUCUGAACACAUGCAUGGCUU; siRNA; chain 1: sugars from the 5' end [UNA]1 r18 [UNA]1 m1, backbone not given here; chain 2: sugars from the 5' end r5 [UNA]1 r13 [UNA]1 m1, backbone not given here) [P16U6] | superior to the activity of the conventional siRNA V30M-P16 | substantially greater than for the conventional siRNA V30M-P16 | effective in silencing V30M TTR | more effective against V30M than V30V | IC50 [2]: 2.12 nM; superiority of selectivity over the selectivity of 5.6 of the conventional siRNA [1]: 4 fold; selectivity against V30M over V30V [1]: 23; IC50 [1]: 0.0924 nM
12 | ĞCCAUGCAUGUGUUCAGAAŨmU / UUCUGAACACAUGCÃUGGCŨmU (chain 1 GCCAUGCAUGUGUUCAGAAUU; chain 2 UUCUGAACACAUGCAUGGCUU; siRNA; chain 1: sugars from the 5' end [UNA]1 r18 [UNA]1 m1, backbone not given here; chain 2: sugars from the 5' end r14 [UNA]1 r4 [UNA]1 m1, backbone not given here) [P16U15] | superior to the activity of the conventional siRNA V30M-P16 | substantially greater than for the conventional siRNA V30M-P16 | effective in silencing V30M TTR | more effective against V30M than V30V | 
13 | CCCCCC/C=C\COC(=O)CCCCCCCN(CCCCCCCC(=O)OC/C=C\CCCCCC)C(=O)SCCCN(CC)CC [ATX- 012] |  |  |  |  | pKa [3]: 10
